Measured values from patent publication EP4741389A1, “KAT6 INHIBITOR” (Shanghai Qilu Pharmaceutical Research and Development …, priority 2023, dated 2025).

Key:
KAT6B = target: T1, KAT6B (Homo sapiens, UniProt Q8WYB5); experiment: KATs acetyltransferase enzyme activity assay (TR-FRET), KAT6B; format: biochemical; conditions: Biotin-H3 (1-21) and AcCOA, 90 minutes at room temperature
T1 construct: purchased Active Motif 81224
Procedure: (§1) I. KATs acetyltransferase enzyme activity assay
(§2) • 1. The inhibitory effect of compounds on the acetyltransferase activity of KATs was evaluated using the Time-Resolved Fluorescence Resonance Energy Transfer (TR-FRET) assay. The assay was conducted in 384-well plates using Tris-HCl buffer. • 2. Compounds were diluted in DMSO and transferred to 384-well plates. Enzyme solutions (KAT6: active motif (kit), 81223; KAT6B: active motif, 81224; KAT5: SignalChem, K314-380G; KAT7: ICE, S2210F-H21HF; KAT8: Active motif, 81225) were added and the mixture was incubated at room temperature for 15 minutes. • 3. Subsequently, 2.5 µL of a mixture containing KAT6A/KAT6B: Biotin-H3 (1-21, Genscript, C6829GL060) or KAT5/7/8: Bio-H4 (1-25, Genscript, C736BGL100) AcCOA (Sigma, A2056) was added, and the reaction proceeded at room temperature for 90 minutes. • 4. After the reaction, a detection mixture containing Europium-anti-acetyl-Histone H4 Lysine (H4Kac pan) Antibody (Perkin Elmer, TRF0412) and LANCE Ultra ULight™-Streptavidin in LANCE™ Detection buffer (10x) (Perkin Elmer, CR97-100) was added, followed by incubation at room temperature for 60 minutes. • 5. HTRF signals were measured using a BMG PHERAstar FSX (Ratio: 665nm/620nm). IC50 values were calculated by nonlinear regression using a four-parameter logistic equation in GraphPad Prism 8 software.

KAT6A = target: T2, KAT6A (Homo sapiens, UniProt Q92794); experiment: KATs acetyltransferase enzyme activity assay (TR-FRET), KAT6A; format: biochemical; conditions: Biotin-H3 (1-21) and AcCOA, 90 minutes at room temperature
T2 construct: purchased Active Motif 81223
T2 sequence (Q92794 488-778 limits assumed): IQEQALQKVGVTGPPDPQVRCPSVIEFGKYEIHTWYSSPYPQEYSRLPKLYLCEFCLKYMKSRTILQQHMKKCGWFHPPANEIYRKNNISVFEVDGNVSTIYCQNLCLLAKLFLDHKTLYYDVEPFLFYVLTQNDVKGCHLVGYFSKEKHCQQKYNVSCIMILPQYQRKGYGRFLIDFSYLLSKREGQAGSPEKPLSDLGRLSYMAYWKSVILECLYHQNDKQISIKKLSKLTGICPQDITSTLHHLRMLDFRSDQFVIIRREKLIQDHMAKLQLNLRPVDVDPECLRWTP
Procedure: as §1
as §2, with “Enzyme solutions (KAT6: active motif (kit), 81223; KAT6B: active motif, 81224; KAT5: SignalChem, K314-380G; KAT7: ICE, S2210F-H21HF; KAT8: Active motif, 81225) were added and the mixture was incubated at room temperature for 15 minutes. • 3.” left out, “HTRF signals were measured using a BMG PHERAstar FSX (Ratio: 665nm/620nm).” left out

[1] = test system: ZR-75-1 H3K23 Acetylation; experiment: Histone H3 acetylation assay (H3K23 acetylation in ZR-75-1 cells); format: cell-based; conditions: Homo sapiens, 72 hours incubation, Odyssey CLx fluorescence, read-out: ZR-75-1 H3K23 Acetylation Inhibition IC50
Procedure: III. Histone H3 acetylation assay
• 1. ZR-75-1 cells were seeded at 5000 cells/40 µL per well in 384-well plates and cultured overnight in an incubator at 37°C & 5% CO2. • 2. 40 nL of serially diluted compounds were added to the 384-well plates, followed by further incubation for 72 hours. • 3. The supernatant was discarded, and 8 w/v% paraformaldehyde (final concentration was 4 w/v%) was added directly to the wells to fix the cells at room temperature. • 4. After washing twice with PBS, a permeabilization agent (40 µL of methanol) was added and incubated for 10 minutes to permeabilize the cell membranes. • 5. After washing twice with PBS, a blocking buffer was added and incubated at room temperature for 1 hour for blocking. • 6. The blocking buffer was discarded, and 20 µL of primary antibodies (recombinant Anti-Histone H3 (acetyl K23) antibody and Anti-Histone H4 antibody) diluted in blocking buffer (1:1000 by volume dilution) were added, followed by incubation at 4°C overnight. • 7. After washing three times with PBST (0.05 vol% Tween-20 in PBS), 20 µL of fluorescent secondary antibodies (IRDye 680RD Goat anti-MOUSE, Licor, 926-68070; IRDye 800CW Goat anti-Rabbit, Licor, 926-32211) diluted in blocking buffer (1:2000 by volume dilution) were added, followed by incubation at room temperature, protected from light, for 1 hour. Then, the plates were washed three times with PBST. • 8. Scanning was performed using an Odyssey CLx, and the fluorescence signal value for each well was quantified. IC50 values were calculated by nonlinear regression using a four-parameter logistic equation in GraphPad Prism 8 software.

ZR-75-1 cells = experiment: ZR-75-1 cell proliferation assay (CellTiter-Glo); format: cell-based; conditions: Homo sapiens, ZR-75-1, 240 h, total culture period of 10 days, read-out: ZR-75-1 Proliferation Inhibition IC50
Procedure: II. ZR-75-1 cell proliferation assay
• 1. ZR-75-1 cells were seeded in 96-well plates and cultured overnight in an incubator at 37°C & 5% CO2. • 2. Compounds were diluted using culture medium and added to the 96-well plates. The plates were placed back into the incubator for continued culture. Every 5 days, the cells were trypsinized, counted, and re-seeded. After the cells had fully adhered, compounds were added again for incubation, for a total culture period of 10 days. • 3. After the culture period, 60 µL of CellTiter-Glo reagent (Promega, G7573) was added to each well. The plates were protected from light and shaken for 2 minutes to lyse the cells, followed by further incubation at room temperature, protected from light, for 30 minutes. • 4. Luminescence signals were read using a BMG PHERAstar FSX. IC50 values were calculated by nonlinear regression using a four-parameter logistic equation in GraphPad Prism 8 software.

T1 sequence (Q8WYB5 whole entry): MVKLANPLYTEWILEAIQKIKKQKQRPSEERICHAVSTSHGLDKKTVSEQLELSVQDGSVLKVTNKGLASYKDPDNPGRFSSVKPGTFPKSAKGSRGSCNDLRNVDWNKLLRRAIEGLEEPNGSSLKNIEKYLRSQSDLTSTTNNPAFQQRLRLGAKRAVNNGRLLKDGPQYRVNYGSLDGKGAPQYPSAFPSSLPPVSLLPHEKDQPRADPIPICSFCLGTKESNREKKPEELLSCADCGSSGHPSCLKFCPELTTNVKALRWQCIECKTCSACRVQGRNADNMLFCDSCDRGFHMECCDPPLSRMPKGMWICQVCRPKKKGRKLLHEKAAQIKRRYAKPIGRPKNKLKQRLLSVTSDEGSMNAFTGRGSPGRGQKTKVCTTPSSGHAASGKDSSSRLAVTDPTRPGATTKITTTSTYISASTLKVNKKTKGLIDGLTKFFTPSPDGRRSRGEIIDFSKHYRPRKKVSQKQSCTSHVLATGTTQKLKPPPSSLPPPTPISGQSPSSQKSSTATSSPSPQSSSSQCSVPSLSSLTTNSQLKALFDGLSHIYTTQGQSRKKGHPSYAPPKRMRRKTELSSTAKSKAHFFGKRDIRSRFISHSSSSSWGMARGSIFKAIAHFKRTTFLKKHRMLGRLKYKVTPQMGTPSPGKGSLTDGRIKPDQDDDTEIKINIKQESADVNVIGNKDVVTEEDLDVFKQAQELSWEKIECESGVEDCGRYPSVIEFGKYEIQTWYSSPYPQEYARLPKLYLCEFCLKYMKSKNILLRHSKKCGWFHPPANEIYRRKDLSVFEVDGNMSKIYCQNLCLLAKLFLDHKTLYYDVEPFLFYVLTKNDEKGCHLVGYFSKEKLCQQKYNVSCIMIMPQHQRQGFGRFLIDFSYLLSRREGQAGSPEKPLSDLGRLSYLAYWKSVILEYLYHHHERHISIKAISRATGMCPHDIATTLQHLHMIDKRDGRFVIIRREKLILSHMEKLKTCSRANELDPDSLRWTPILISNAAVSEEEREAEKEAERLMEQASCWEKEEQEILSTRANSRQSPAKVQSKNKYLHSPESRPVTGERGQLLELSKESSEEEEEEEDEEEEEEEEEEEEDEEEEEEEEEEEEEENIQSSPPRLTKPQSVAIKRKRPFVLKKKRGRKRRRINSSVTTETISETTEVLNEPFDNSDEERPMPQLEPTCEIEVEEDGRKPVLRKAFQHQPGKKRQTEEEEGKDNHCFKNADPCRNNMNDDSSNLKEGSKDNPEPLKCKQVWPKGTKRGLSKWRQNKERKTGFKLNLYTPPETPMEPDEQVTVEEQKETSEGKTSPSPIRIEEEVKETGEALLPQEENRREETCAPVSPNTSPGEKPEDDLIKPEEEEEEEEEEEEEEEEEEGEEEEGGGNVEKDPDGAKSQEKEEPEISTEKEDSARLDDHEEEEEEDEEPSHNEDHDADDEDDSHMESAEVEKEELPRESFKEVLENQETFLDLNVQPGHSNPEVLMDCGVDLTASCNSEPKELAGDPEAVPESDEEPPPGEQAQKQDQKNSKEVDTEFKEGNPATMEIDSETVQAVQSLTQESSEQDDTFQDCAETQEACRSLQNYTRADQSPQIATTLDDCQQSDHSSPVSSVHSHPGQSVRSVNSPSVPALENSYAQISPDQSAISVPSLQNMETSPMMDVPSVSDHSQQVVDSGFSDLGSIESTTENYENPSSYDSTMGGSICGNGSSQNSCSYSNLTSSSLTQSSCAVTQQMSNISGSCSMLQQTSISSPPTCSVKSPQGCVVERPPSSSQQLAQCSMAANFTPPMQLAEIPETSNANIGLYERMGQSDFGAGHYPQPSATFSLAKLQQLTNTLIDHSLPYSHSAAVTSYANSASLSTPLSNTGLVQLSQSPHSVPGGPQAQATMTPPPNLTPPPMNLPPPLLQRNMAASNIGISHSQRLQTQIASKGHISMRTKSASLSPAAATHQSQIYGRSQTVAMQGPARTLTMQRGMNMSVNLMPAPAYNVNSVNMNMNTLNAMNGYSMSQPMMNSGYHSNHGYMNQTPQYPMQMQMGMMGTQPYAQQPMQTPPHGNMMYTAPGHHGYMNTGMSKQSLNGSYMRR

| Compound | IC50 (KAT6B) [nM] | IC50 (KAT6A) [nM] | IC50 [1] [nM] | IC50 (ZR-75-1 cells) [nM] |
| --- | --- | --- | --- | --- |
| COc1cc2c(cc1S(=O)(=O)Nc1noc3cc(Cn4cccn4)cc(OC)c13)C1(CC1)CO2 [Compound 4, N-(6-((1H-Pyrazol-1-yl)methyl)-4-methoxybenzo[d]isoxazol-3-yl)-6-methoxy-2H-spiro[benzofuran-3,1'-cyclopropane]-5-sulfonamide] | 15 | 2 |  |  |
| COc1cc2c(cc1S(=O)(=O)Nc1noc3cc(Cn4cccn4)cc(OC)c13)COCCO2 [Compound 9, N-(6-((1H-Pyrazol-1-yl)methyl)-4-methoxybenzo[d]isoxazol-3-yl)-8-methoxy-2,3-dihyd ro-5H-benzo[e][1,4]dioxepine-7-sulfonamide] | 9.5 | 1.6 | 2.1 |  |
| COc1ccc2c(c1S(=O)(=O)Nc1noc3cc(Cn4cccn4)cc(OC)c13)OCC(F)(F)CO2 [Compound 11, N-(6-((1H-Pyrazol-1-yl)methyl)-4-methoxybenzo[d]isoxazol-3-yl)-3,3-difluoro-7-methoxy-3,4-dihydro-2H-benzo[b] [1,4]dioxepine-6-sulfonamide] | 46.8 | 2.5 | 12.7 |  |
| COc1ccc2c(c1S(=O)(=O)Nc1noc3cc(Cn4cccn4)c(C)cc13)OCCCO2 [Compound 17, N-(6-((1H-Pyrazol-1-yl)methyl)-5-methylbenzo[d]isoxazol-3-yl)-7-methoxy-3,4-dihydro-2H-benzo [b] [1,4] dioxepine-6-sulfonamide] |  |  |  | 3.7 |
| CCOc1cc2c(NS(=O)(=O)c3c(OC)ccc4c3OCCCO4)noc2cc1Cn1cccn1 [Compound 18, N-(6-((1H-Pyrazol-1-yl)methyl)-5-ethoxybenzo[d]isoxazol-3-yl)-7-methoxy-3,4-dihydro-2H-benzo [b] [1,4] dioxepine-6-sulfonamide] |  |  |  | 22.1 |
| COc1ccc2c(c1S(=O)(=O)Nc1noc3cc(Cn4cccn4)c4c(c13)OCCC4)OCCCO2 [Compound 22, N-(5-((1H-Pyrazol-1-yl)methyl)-3,4-dihydro-2H-chromeno[8,7-d]isoxazol-9-yl)-7-methoxy-3,4-dihydro-2H-benzo[b][1,4]dioxepine-6-sulfonamide] | 7.3 | 1.5 |  | 0.5 |
| COc1ccc2c(c1S(=O)(=O)Nc1noc3cc(Cn4cccn4)c(C)c(OC)c13)OCC1CC21 (stereo not shown) [Compound 24, N-(6-((1H-Pyrazol-1-yl)methyl)-4-methoxy-5-methylbenzo[d]isoxazol-3-yl)-5-methoxy-1,1a,2,7b-tetrahydrocyclopropa[c]chromene-4-sulfonamide] | 34.4 | 3.1 |  |  |
| COc1ccc2c(c1S(=O)(=O)Nc1noc3cc(Cn4cccn4)c(C)c(OC)c13)OCC21CC1 [Compound 25, N-(6-((1H-Pyrazol-1-yl)methyl)-4-methoxy-5-methylbenzo[d]isoxazol-3-yl)-6-methoxy-2H-spiro[benzofuran-3,1'-cyclopropane]-7-sulfonamide] | 70.3 | 5.9 |  |  |
| CCc1c(Cn2cccn2)cc2onc(NS(=O)(=O)c3c(OC)ccc4c3OCCCO4)c2c1OC [Compound 26, N-(6-((1H-Pyrazol-1-yl)methyl)-5-ethyl-4-methoxybenzo[d]isoxazol-3-yl)-7-methoxy-3,4-dihydro-2H-benzo[b][1,4]dioxepine-6-sulfonamide] | 80.3 | 4.7 |  |  |
| [2H]C([2H])(c1cc(OC)c2c(NS(=O)(=O)c3c(OC)ccc4c3OC[C@@H]3C[C@H]43)noc2c1)n1cccn1 [Compound 42, (1aR,7bS)-N-(6-((1H-Pyrazol-1-yl)methyl-d2)-4-methoxybenzo[d]isoxazol-3-yl)-5-methoxy-1,1a,2,7b-tetrahydrocyclopropa[c]chromene-4-sulfonamide] | 1.6 | 1.1 |  | 0.1 |
| [2H]C([2H])(c1cc(OC)c2c(NS(=O)(=O)c3c(OC)ccc4c3OCCCO4)noc2c1)n1cccn1 [Compound 43, N-(6-((1H-Pyrazol-1-yl)methyl-d2)-4-methoxybenzo[d]isoxazol-3-yl)-7-methoxy-3,4-di hydro-2H-benzo[b][1,4]dioxepine-6-sulfonamide] | 28.9 | 3.7 |  | 1 |
| COc1ccc2c(c1S(=O)(=O)Nc1noc3cc(Cn4cccn4)cc(OC)c13)OC1CC21 (stereo not shown) [Compound 44, 4-Methoxy-N-[4-methoxy-6-(pyrazol-1-ylmethyl)-1,2-benzoxazol-3-yl]-la,6b-dihydro-1 H-cyclopropa[b]benzofuran-3-sulfonamide] | 8.6 | 1.7 |  | 0.3 |
| [2H]C([2H])([2H])Oc1cc(Cn2cccn2)cc2onc(NS(=O)(=O)c3c(OC)ccc4c3OC[C@@H]3C[C@H]43)c12 [Compound 45, (1aR,7bS)-N-(6-((1H-Pyrazol-1-yl)methyl)-4-(methoxy-d3)benzo[d]isoxazol-3-yl)-5-met hoxy-1,1a,2,7b-tetrahydrocyclopropa[c]chromene-4-sulfonamide] | 1.4 | 0.6 |  | 0.04 |
| [2H]C([2H])([2H])Oc1cc(Cn2cccn2)cc2onc(NS(=O)(=O)c3c(OC)ccc4c3OCCCO4)c12 [Compound 46, 7-Methoxy-N-[6-(pyrazol-1-ylmethyl)-4-(trideuteriomethoxy)-1,2-benzoxazol-3-yl]-3,4-dihydro-2H-1,5-benzodioxepine-6-sulfonamide] | 33.8 | 5.4 |  | 1 |
| COc1ccc2c(c1S(=O)(=O)Nc1noc3cc(Oc4nccs4)cc(OC)c13)OC[C@@H]1C[C@H]21 [Compound 47, (1aR,7bS)-5-Methoxy-N-(4-methoxy-6-(thiazol-2-yloxy)benzo[d]isoxazol-3-yl)-1,1a,2,7 b-tetrahydrocyclopropa[c]chromene-4-sulfonamide] | 1.5 | 0.8 | 3.4 |  |
| COc1ccc2c(c1S(=O)(=O)Nc1noc3cc(Oc4ccccn4)cc(OC)c13)OC[C@@H]1C[C@H]21 [Compound 48, (1aR,7bS)-5-Methoxy-N-(4-methoxy-6-(pyridin-2-yloxy)benzo[d]isoxazol-3-yl)-1,1a,2,7 b-tetrahydrocyclopropa [c] chromene-4-sulfonamide] | 15.6 | 1.7 | 17.9 |  |
